From patent US20180027748A1, “METHOD FOR PRODUCING METABOLITE CAPABLE OF IMPROVING DROUGHT TOLERANCE USING MICROORGANISM, AND METHOD FOR IMPROVING DROUGHT TOLERANCE OF PLANT USING SAID METABOLITE” (priority 2015, published 2018)

Test system: white radish seeds
Experiment: Drought tolerance test on white radish after removal of aluminum foil
Format: in vivo
Settings: foil removed, samples A/B/C 10/100/300 μg/mL·agar extract, D 1 μg/mL·agar ABA, dH2O control G 27%
Description: Samples A, B, and C were prepared containing, respectively, 10, 100, and 300 μg/mL·agar of the drought tolerance improving metabolite producing bacterium extract obtained by the method described above. The samples were each dispensed into 10 test tubes.
ABA standard samples D, E, and F were prepared containing, respectively, 1, 10, and 20 μg/mL·agar of abscisic acid (ABA) as a standard. The samples were each dispensed into 10 test tubes.
After a culture medium was prepared in each sample, one white radish seed was placed in each test tube. After each test tube was capped with aluminum foil, each seed was germinated in the dark.
Samples A to C, D and G prepared in test method 1 described above were subjected to a drought tolerance test after the aluminum foil was removed from each test tube.

## CC1=CC(=O)CC(C)(C)C1(O)/C=C/C(C)=C\C(=O)O (stereo not shown) [Sample D, abscisic acid]
  percentage of sound individuals (drought tolerance level): 66%
